Data taken from patent publication US20110105515A1, “TARGETING THE ONCOPROTEIN NUCLEOPHOSMIN” (President and Fellows of Harvard College, priority 2007, published 2011).

Key:
[1] = tested on: A498; conditions: A498 (Renal Cancer), 48 hours, SRB
[2] = tested on: SNB-19; conditions: SNB-19 (CNS Cancer), 48 hours, SRB
[3] = tested on: MCF7; conditions: MCF7 (Breast Cancer), 48 hours, SRB
[4] = tested on: ACHN; conditions: ACHN (Renal Cancer), 48 hours, SRB
[5] = tested on: BT-549; conditions: BT-549 (Breast Cancer), 48 hours, SRB
[6] = tested on: CCRF-CEM; conditions: CCRF-CEM (Leukemia), 48 hours, SRB
[7] = tested on: NCI-H226; conditions: NCI-H226 (Non-Small Cell Lung Cancer), 48 hours, SRB
[8] = tested on: DU-145; conditions: DU-145 (Prostate Cancer), 48 hours, SRB
[9] = tested on: U251; conditions: U251 (CNS Cancer), 48 hours, SRB
[10] = tested on: MALME-3M; conditions: MALME-3M (Melanoma), 48 hours, SRB
[11] = tested on: SW-620; conditions: SW-620 (Colon Cancer), 48 hours, SRB
[12] = tested on: 786-0; conditions: 786-0 (Renal Cancer), 48 hours, SRB
[13] = tested on: RPMI-8226; conditions: RPMI-8226 (Leukemia), 48 hours, SRB
[14] = tested on: OVCAR-3; conditions: OVCAR-3 (Ovarian Cancer), 48 hours, SRB
[15] = tested on: HS578T; conditions: HS578T (Breast Cancer), 48 hours, SRB
[16] = tested on: UO-31; conditions: UO-31 (Renal Cancer), 48 hours, SRB
[17] = tested on: HT29; conditions: HT29 (Colon Cancer), 48 hours, SRB
[18] = tested on: SNB-75; conditions: SNB-75 (CNS Cancer), 48 hours, SRB
[19] = tested on: M14; conditions: M14 (Melanoma), 48 hours, SRB
[20] = tested on: SF-539; conditions: SF-539 (CNS Cancer), 48 hours, SRB
[21] = tested on: MDA-MB-231/ATCC; conditions: MDA-MB-231/ATCC (Breast Cancer), 48 hours, SRB
[22] = tested on: SR; conditions: SR (Leukemia), 48 hours, SRB
[23] = tested on: OVCAR-8; conditions: OVCAR-8 (Ovarian Cancer), 48 hours, SRB
[24] = tested on: SN12C; conditions: SN12C (Renal Cancer), 48 hours, SRB
[25] = tested on: UACC62; conditions: UACC62 (Melanoma), 48 hours, SRB
[26] = tested on: UACC-257; conditions: UACC-257 (Melanoma), 48 hours, SRB
[27] = tested on: HL-60(TB); conditions: HL-60(TB) (Leukemia), 48 hours, SRB
[28] = tested on: K-562; conditions: K-562 (Leukemia), 48 hours, SRB

`Cc1cc(C)cc(-c2ccc3c(c2)[N+]([O-])=C2C3=C[C@@]34NC(=O)C5(CCCN5C3=O)CC4C2(C)C)c1` (stereo partly shown) [Biphenyl Analogue] showed a TGI [1] of 1320 nM, a TGI [2] of 950 nM and a TGI [3] of 984 nM. For the same compound, the TGI [4] was 618 nM, the TGI [5] was 379 nM and the TGI [6] was 421 nM. For the same compound, the TGI [7] was 707 nM, the TGI [8] was 813 nM and the TGI [9] was 273 nM. The TGI [10] was 244 nM, the TGI [11] was 349 nM and the TGI [12] was 398 nM. For the same compound, the TGI [13] was 48.6 nM, the TGI [14] was 395 nM and the TGI [15] was 18900 nM. The TGI [16] was 731 nM, the TGI [17] was >100000 nM and the TGI [18] was 757 nM. It also gave a TGI [19] of 556 nM, a TGI [20] of 445 nM and a TGI [21] of 1050 nM. It also gave a TGI [22] of 407 nM, a TGI [23] of 1030 nM and a TGI [24] of 614 nM. The TGI [25] was 471 nM, the TGI [26] was 1360 nM and the TGI [27] was 655 nM. For the same compound, the TGI [28] was 358 nM.
